Laboratory results published in patent publication US8829007B2 (priority 2009, dated 2014).
Where two headings read alike, the source gives them in different places.

System: influenza A virus (A/PR/8/34)
Assay: microbe, parasite or virus in culture
Format: cell-based
[1] = Influenza A virus, PR/8, MDCK, mean all, A/PR/8/34 infected MDCK cells, CPE assay, read-out: IC50
[2] = Influenza A virus, PR/8, MDCK, MDCK cells infected with A/PR/8/34, cell protection (CPE), read-out: IC50 (mean all)
[3] = mean all, A/PR/8/34 infected MDCK cells, CPE assay, read-out: IC50
[4] = Influenza A virus, PR/8, MDCK, MDCK cells infected with A/PR/8/34, survival of infected cells, class symbols, read-out: IC50 (mean all)
[5] = MDCK cells infected with A/PR/8/34, survival of infected cells, class symbols, read-out: IC50 (mean all)

In the case of `CC(C)S(=O)(=O)N1CC[C@H](Nc2nc(-c3c[nH]c4ncc(Cl)cc34)ncc2F)C1` [Compound 400, (5)-2-(5-chloro-1H-pyrrolo[2,3-b]pyridin-3-yl)-5-fluoro-N-(1-(isopropylsulfonyl)pyrrolidin-3-yl)pyrimidin-4-amine], the IC50 [1] is reported as 5 to 20 µM.
For `O=S(=O)(C1CCCC1)N1CC[C@H](Nc2nc(-c3c[nH]c4ncc(Cl)cc34)ncc2F)C1` [Compound 403, (S)-2-(5-chloro-1H-pyrrolo[2,3-b]pyridin-3-yl)-N-(1-(cyclopentylsulfonyl)pyrrolidin-3-yl)-5-fluoropyrimidin-4-amine], the IC50 [1] was 5 to 20 µM.
In the case of `COCC(=O)N1CC(Nc2nc(-c3c[nH]c4ncc(Cl)cc34)ncc2F)C1` [Compound 468], the IC50 [1] is reported as 5 to 20 µM.
For `CCOC(=O)CCNC(=O)N1CCC[C@H](CNc2nc(-c3c[nH]c4ncc(Cl)cc34)ncc2F)C1` [Compound 118, (R)-ethyl 3-(3-((2-(5-chloro-1H-pyrrolo[2,3-b]pyridin-3-yl)-5-fluoropyrimidin-4-ylamino)methyl)piperidine-1-carboxamido)propanoate], the IC50 [2] was 5 to 20 µM.
With `O=C(OC1CCOC1)N1CCC(Nc2nc(-c3c[nH]c4ncc(Cl)cc34)ncc2F)C1` (stereo not drawn) [Compound 421] the IC50 [3] was 5 to 20 µM.
`COCC(=O)N1CCC[C@H](CNc2ccnc(-c3c[nH]c4ncc(Cl)cc34)n2)C1` [Compound 491, (R)-1-(3-((2-(5-chloro-1H-pyrrolo[2,3-b]pyridin-3-yl)pyrimidin-4-ylamino)methyl)piperidin-1-yl)-2-methoxyethanone] was tested, and the IC50 [4] was under 5 µM.
For `Cc1cnc(-c2c[nH]c3ncc(Cl)cc23)nc1NC1CCCCC1N` (stereo not drawn) [Compound 116, N1-(2-(5-chloro-1H-pyrrolo[2,3-b]pyridin-3-yl)-5-methylpyrimidin-4-yl)cyclohexane-1,2-diamine], the IC50 [2] was over 20 µM.
With `CCCCS(=O)(=O)N1CCCC[C@@H]1CNc1nc(-c2c[nH]c3ncc(Cl)cc23)ncc1F` [Compound 329, (R)—N-((1-(butylsulfonyl)piperidin-2-yl)methyl)-2-(5-chloro-1H-pyrrolo[2,3-b]pyridin-3-yl)-5-fluoropyrimidin-4-amine] the IC50 [1] was over 20 µM.
In the case of `CC(=O)c1cccc(NC(=O)N2CCC[C@H](CNc3nc(-c4c[nH]c5ncc(Cl)cc45)ncc3F)C2)c1` [Compound 77, (R)-3-((2-(5-chloro-1H-pyrrolo[2,3-b]pyridin-3-yl)-5-fluoropyrimidin-4-ylamino)methyl)-N-(3-ethanoylphenyl)piperidine-1-carboxamide], the IC50 [2] is reported as 5 to 20 µM.
`O=C(N[C@@H]1CCCC[C@H]1Nc1nc(-c2c[nH]c3ncc(Cl)cc23)ncc1F)C1CCCC1` [Compound 351, N-[(1R,2R)-2-[[2-(5-chloro-1H-pyrrolo[2,3-b]pyridin-3-yl)-5-fluoro-pyrimidin-4-yl]amino]cyclohexyl]cyclopentanecarboxamide] gave an IC50 [1] of over 20 µM.
In the case of `O=C(C1CC1)N1CCOC(CNc2nc(-c3c[nH]c4ncc(Cl)cc34)ncc2F)C1` (stereo not drawn) [Compound 450, (2-((2-(5-chloro-1H-pyrrolo[2,3-b]pyridin-3-yl)-5-fluoropyrimidin-4-ylamino)methyl)morpholino)(cyclopropyl)methanone], the IC50 [1] is reported as 5 to 20 µM.
In the case of `CCN(CC)C(=O)[C@H]1CCCC[C@@H]1Nc1nc(-c2c[nH]c3ncc(Cl)cc23)ncc1F` [Compound 520], the IC50 [4] is reported as over 20 µM.
For `CNC(=O)N1CCC[C@H](CNc2nc(-c3c[nH]c4ncccc34)ncc2F)C1` [Compound 274], the IC50 [2] was 5 to 20 µM.
`CCOC(=O)CCCC(=O)N1CCC[C@@H](CNc2nc(-c3c[nH]c4ncc(Cl)cc34)ncc2F)C1` [Compound 19, (S)-ethyl 5-(3-((2-(5-chloro-1H-pyrrolo[2,3-b]pyridin-3-yl)-5-fluoropyrimidin-4-ylamino)methyl)piperidin-1-yl)-5-oxopentanoate] gave an IC50 [2] of over 20 µM.
`O=C(OCC1CCOC1)N1CC[C@H](Nc2nc(-c3c[nH]c4ncc(Cl)cc34)ncc2F)C1` (stereo partly drawn) [Compound 484] showed an IC50 [4] of 5 to 20 µM.
`O=C(c1ccccc1)N1CCC[C@H](CNc2nc(-c3c[nH]c4ncccc34)ncc2F)C1` [Compound 271, (R)-(3-((5-fluoro-2-(1H-pyrrolo[2,3-b]pyridin-3-yl)pyrimidin-4-ylamino)methyl)piperidin-1-yl)(phenyl)methanone] showed an IC50 [2] of 5 to 20 µM.
`CCCC(=O)N1CCC[C@@H](CNc2nc(-c3c[nH]c4ncccc34)ncc2F)C1` [Compound 225, (S)-1-(3-((5-fluoro-2-(1H-pyrrolo[2,3-b]pyridin-3-yl)pyrimidin-4-ylamino)methyl)piperidin-1-yl)butan-1-one] showed an IC50 [2] of 5 to 20 µM.
With `COCCC(=O)N1CCC[C@H](Nc2nc(-c3c[nH]c4ncc(Cl)cc34)ncc2F)C1` [Compound 488] the IC50 (read-out: IC50 (mean all)) was over 20 µM.
Work on `COCC(=O)N1CCC[C@H](Nc2nc(-c3c[nH]c4ncc(Cl)cc34)ncc2F)C1` [Compound 486] yielded an IC50 (read-out: IC50 (mean all)) of 5 to 20 µM.
`CCS(=O)(=O)N1CCC(Nc2nc(-c3c[nH]c4ncc(Cl)cc34)ncc2F)C1` (stereo not drawn) [Compound 407] was tested, and the IC50 [3] was over 20 µM.
`COC(=O)CCC(=O)N1CCCC(Nc2ccnc(-c3c[nH]c4ncc(Cl)cc34)n2)C1` [Compound 487, (S)-methyl 4-(3-((2-(5-chloro-1H-pyrrolo[2,3-b]pyridin-3-yl)pyrimidin-4-ylamino)piperidin-1-yl)-4-oxobutanoate] showed an IC50 [4] of 5 to 20 µM.
Compound `NC1CCCC(Nc2ccnc(-c3c[nH]c4ncc(Cl)cc34)n2)C1` (stereo not drawn) [Compound 510] has an IC50 [5] of over 20 µM.
For `O=C(N[C@@H]1CCCC[C@@H]1Nc1nc(-c2c[nH]c3ncc(Cl)cc23)ncc1F)c1ccccc1` (relative stereo) [Compound 336, N-[cis-2-[[2-(5-chloro-1H-pyrrolo[2,3-b]pyridin-3-yl)-5-fluoro-pyrimidin-4-yl]amino]cyclohexyl]benzamide], the IC50 [1] was over 20 µM.
Work on `CC(C)S(=O)(=O)N1CCC(Nc2nc(-c3c[nH]c4ncc(Cl)cc34)ncc2F)C1` (stereo not drawn) [Compound 408] yielded an IC50 [3] of over 20 µM.
In the case of `CCCS(=O)(=O)N[C@@H]1CCCC[C@@H]1Nc1nc(-c2c[nH]c3ncccc23)ncc1F` (relative stereo) [Compound 346, N-[cis-2-[[5-fluoro-2-(1H-pyrrolo[2,3-b]pyridin-3-yl)pyrimidin-4-yl]amino]cyclohexyl]propane-1-sulfonamide], the IC50 [1] is reported as over 20 µM.
`CS(=O)(=O)N1CC(Nc2nc(-c3c[nH]c4ncc(Cl)cc34)ncc2F)C1` [Compound 508] showed an IC50 [5] of over 20 µM.
In the case of `COC(=O)CCC(=O)N1CCCC(CNc2ccnc(-c3c[nH]c4ncc(Cl)cc34)n2)C1` (stereo not drawn) [Compound 492], the IC50 [5] is reported as 5 to 20 µM.
In the case of `COc1ccccc1C(=O)N1CCC[C@H](CNc2nc(-c3c[nH]c4ncccc34)ncc2F)C1` [Compound 272, (R)-(3-((5-fluoro-2-(1H-pyrrolo[2,3-b]pyridin-3-yl)pyrimidin-4-ylamino)methyl)piperidin-1-yl)(2-methoxyphenyl)methanone], the IC50 [2] is reported as over 20 µM.
With `O=C(Nc1cccnc1)N1CCC[C@@H](CNc2nc(-c3c[nH]c4ncc(Cl)cc34)ncc2F)C1` [Compound 40, (S)-3-((2-(5-chloro-1H-pyrrolo[2,3-b]pyridin-3-yl)-5-fluoropyrimidin-4-ylamino)methyl)-N-(pyridin-3-yl)piperidine-1-carboxamide] the IC50 [2] was over 20 µM.
For `CC1(C(=O)N2CC[C@H](Nc3nc(-c4c[nH]c5ncc(Cl)cc45)ncc3F)C2)COC1` [Compound 482], the IC50 [1] was under 5 µM.
`CCS(=O)(=O)N1CC[C@H](Nc2nc(-c3c[nH]c4ncc(Cl)cc34)ncc2F)C1` [Compound 399, (S)-2-(5-chloro-1H-pyrrolo[2,3-b]pyridin-3-yl)-N-(1-(ethylsulfonyl)pyrrolidin-3-yl)-5-fluoropyrimidin-4-amine] was tested, and the IC50 [1] was under 5 µM.
`COP(=O)(OC)[C@@]1(O)CCC[C@H](Nc2nc(-c3c[nH]c4ncc(Cl)cc34)ncc2F)C1` [Compound 741] showed an IC50 (read-out: IC50) of under 5 µM.
In the case of `O=C(N[C@@H]1CCCC[C@H]1Nc1nc(-c2c[nH]c3ncccc23)ncc1F)c1ccccc1` [Compound 360, N-[(1R,2R)-2-[[5-fluoro-2-(1H-pyrrolo[2,3-b]pyridin-3-yl)pyrimidin-4-yl]amino]cyclohexyl]benzamide], the IC50 [1] is reported as over 20 µM.
`O=C1NCCC1Nc1nc(-c2c[nH]c3ncc(Cl)cc23)ncc1F` (stereo not drawn) [Compound 380] showed an IC50 [1] of 5 to 20 µM.
In the case of `CS(=O)(=O)N1CCCC(Nc2ccnc(-c3c[nH]c4ncc(Cl)cc34)n2)C1` (stereo not drawn) [Compound 466], the IC50 [3] is reported as 5 to 20 µM.
Compound `Fc1cnc(-c2c[nH]c3ncc(Cl)cc23)nc1NCC1CN(Cc2ccccc2)CCO1` (stereo not drawn) [Compound 388, N-((4-benzylmorpholin-2-yl)methyl)-2-(5-chloro-1H-pyrrolo[2,3-b]pyridin-3-yl)-5-fluoropyrimidin-4-amine] has an IC50 [1] of over 20 µM.
`COCC(=O)N1CC[C@H](Nc2nc(-c3c[nH]c4ncc(Cl)cc34)ncc2F)C1` [Compound 481] showed an IC50 [1] of 5 to 20 µM.
Work on `O=S(=O)(C1CC1)N1CCCC[C@H]1CNc1nc(-c2c[nH]c3ncc(Cl)cc23)ncc1F` [Compound 386, (S)-2-(5-chloro-1H-pyrrolo[2,3-b]pyridin-3-yl)-5-fluoro-N-((1-(cyclopropylsulfonyl)-piperidin-2-yl)methyl)pyrimidin-4-amine] yielded an IC50 [1] of under 5 µM.
For `O=C(C1CCOC1)N1CC[C@H](Nc2nc(-c3c[nH]c4ncc(Cl)cc34)ncc2F)C1` (stereo partly drawn) [Compound 478], the IC50 (read-out: IC50) was 5 to 20 µM.
In the case of `O=S(=O)(CC1CCCC1)N1CC(Nc2nc(-c3c[nH]c4ncc(Cl)cc34)ncc2F)C1` [Compound 469, 2-(5-chloro-1H-pyrrolo[2,3-b]pyridin-3-yl)-N-(1-(cyclopentyl-methylsulfonyl)azetidin-3-yl)-5-fluoropyrimidin-4-amine], the IC50 [1] is reported as over 20 µM.
In the case of `O=C(Nc1cccc(C(F)(F)F)c1)N1CCC[C@H](CNc2nc(-c3c[nH]c4ncc(Cl)cc34)ncc2F)C1` [Compound 79, (R)-3-((2-(5-chloro-1H-pyrrolo[2,3-b]pyridin-3-yl)-5-fluoropyrimidin-4-ylamino)methyl)-N-(3-(trifluoromethyl)phenyl)piperidine-1-carboxamide], the IC50 [2] is reported as 5 to 20 µM.
For `CCC(=O)N1CCOCC1CNc1nc(-c2c[nH]c3ncc(Cl)cc23)ncc1F` (stereo not drawn) [Compound 516, 1-(3-((2-(5-chloro-1H-pyrrolo[2,3-b]pyridin-3-yl)-5-fluoropyrimidin-4-ylamino)methyl)morpholino)propan-1-one], the IC50 [4] was 5 to 20 µM.
